Publication PMC9414913, “Tyrosinase Inhibitors Derived from Chemical Constituents of Dianella ensifolia” (Plants, 2022)

Each compound was assayed against mushroom tyrosinase (Agaricus bisporus, UniProt C7FF04) (assay: In vitro mushroom tyrosinase inhibition assay). Details: compared with arbutin (positive control).
Format: biochemical
Experimental: The mushroom tyrosinase inhibitory assay has been described in detail previously. Briefly, various concentrations of test compounds (100 μL) and 2 mM L-tyrosine (80 μL, Sigma-Aldrich, St. Louis, MO, USA) were mixed in 96-well plates. 20 μL of mushroom tyrosinase (1000 U/mL, Sigma-Aldrich, USA) was added to initiate the assay. The absorbance of the mixture was measured at 490 nm using a microplate reader (μQuant™, BioTek Winooski, VT, USA).

mushroom tyrosinase, sequence (G1K3P4 entry or part of it): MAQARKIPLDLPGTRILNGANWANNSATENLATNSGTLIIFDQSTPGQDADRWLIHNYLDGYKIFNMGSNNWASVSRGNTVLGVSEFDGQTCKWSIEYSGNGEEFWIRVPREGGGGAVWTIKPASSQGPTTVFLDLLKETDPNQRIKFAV
mushroom tyrosinase, sequence (C7FF04 2-392): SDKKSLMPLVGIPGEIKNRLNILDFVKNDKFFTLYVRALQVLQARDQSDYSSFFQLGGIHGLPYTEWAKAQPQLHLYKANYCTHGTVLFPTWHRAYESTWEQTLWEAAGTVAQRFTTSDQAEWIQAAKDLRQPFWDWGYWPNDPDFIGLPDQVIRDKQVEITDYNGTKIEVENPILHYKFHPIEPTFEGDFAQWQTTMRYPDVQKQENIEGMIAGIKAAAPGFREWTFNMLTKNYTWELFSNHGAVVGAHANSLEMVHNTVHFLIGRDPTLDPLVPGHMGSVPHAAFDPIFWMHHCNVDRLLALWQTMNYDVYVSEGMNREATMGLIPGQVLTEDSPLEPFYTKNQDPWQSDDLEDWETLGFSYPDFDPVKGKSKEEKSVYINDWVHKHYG

mushroom tyrosinase inhibitory effect, in words	Structure (SMILES)
moderate or weak activity	COc1cc2c(cc1OC)O[C@H](c1ccc(O)cc1)CC2 [Compound 1, (2S)-4’-hydroxy-6,7-dimethoxyflavan]
moderate or weak activity	COc1ccc2c(c1)O[C@H](c1ccccc1O)CC2 [Compound 3, (2S)-2’-hydroxy-7-methoxyflavan]
moderate or weak activity	Oc1ccc([C@@H]2CCc3ccc(O)cc3O2)cc1 [Compound 8, (2S)-7,4’-dihydroxyflavan]
moderate or weak activity	COc1ccc2c(c1C)OC(C1(O)C=CC(=O)CC1)CC2 [Compound 4, (2S,1′S)-4-hydroxy-4-(7-methoxy-8-methylchroman-2-yl)-cyclohex-2-enone]
moderate or weak activity	COc1ccc([C@@H]2CCc3cc(OC)c(O)cc3O2)cc1O [Compound 13, (2S)-7,3′-dihydroxy-6,4’-dimethoxyflavan]
moderate or weak activity	COc1ccc2c(c1C)O[C@H](c1cc(O)c(OC)c(O)c1)CC2 [Compound 12, (2S)-3’,5’-dihydroxy-7,4’-dimethoxy-8-methylflavan]
moderate or weak activity	Cc1c(O)ccc2c1O[C@H](c1ccc(O)cc1)CC2 [Compound 10, (2S)-7,4’-dihydroxy-8-methylflavan]

The next lines start with the compound.

Structure (SMILES)	mushroom tyrosinase inhibitory effect, in words
COc1ccc2c(c1C)O[C@H](c1ccc(O)c(O)c1)CC2 [Compound 2, (2S)-3’,4’-dihydroxy-7-methoxy-8-methylflavan]	more substantial inhibitory effect against mushroom tyrosinase than arbutin
O=c1cc(-c2ccc(O)cc2)oc2cc(O)cc(O)c12 [Compound 21, apigenin]	more substantial inhibitory effect against mushroom tyrosinase than arbutin
O=C1C[C@@H](c2ccc(O)cc2)Oc2cc(O)ccc21 [Compound 15, (2S)-liquiritigenin]	more substantial inhibitory effect against mushroom tyrosinase than arbutin
O=c1cc(-c2ccc(O)c(O)c2)oc2cc(O)cc(O)c12 [Compound 20, luteolin]	more substantial inhibitory effect against mushroom tyrosinase than arbutin
CC(=O)c1c(C)cc2c(c1O)C(=O)CCC2O (stereo not shown) [Compound 41, 7-acetyl-4,8-dihydroxy-6-methyl-1-tetralone]	moderate or weak activity

Same assay, conditions: substrate 2 mM L-tyrosine; absorbance at 490 nm; read-out: IC50 (mushroom tyrosinase inhibitory effect)

Structure (SMILES)	IC50
O=C1C[C@@H](c2ccc(O)cc2)Oc2cc(O)ccc21 [Compound 15, (2S)-liquiritigenin]	109 ± 6.2 µM
